What was measured:
[1] = tested on: prostate cancer cells; settings: via P2 receptors; cited from earlier work
[2] = tested on: attachment of carcinoma cells to human LECs; test: In vitro human LEC attachment assay (ATP or MDA-MB-231 supernatant stimulation); assay type: cell-based; settings: 48 hrs. stimulation (10^−7M ATP or MDA-MB-231 supernatant) vs DMEM/F12 Ham negative control; p<0.01; n=5
Description: The human LECs were plated to form a monolayer on type I collagen-coated 35 mm plates and incubated to confluence at 37° C. in 5% O2, 5% CO2, and 90% N2. The LECs were kept in serum-starved medium of EBM-2 with 3% FBS. Selected plates were treated with 10^−7M ATP or the supernatant of culture medium of MDA-MB-231 cells for 48 hrs. In some experiments, 10^−6M suramin was simultaneously added to the plates during 48 hrs. treatment with 10^−7M ATP or the culture medium supernatant of MDA-MB-231 cells.
In some experiments, the plates were also treated with anti-human-ICAM-1 antibody (available from R&D Systems, US) for 30 min after 48 hrs. treatment with the culture medium supernatant of MDA-MB-231 or 10^−7M ATP. Breast carcinoma cells stained with PKH26 fluorescent dye (available from SIGMA, US) were then plated at 5×10^4 cells per plate and incubated for 30 min. at 37° C. Unbound cells were removed by aspiration and the plates washed with DMEM/F12 three times. Attachment was quantitated by counting cells under ×100 magnification using a microscope (available from Leica, Switzerland).

[3] = tested on: ICAM-1 on human LECs; test: Immunohistochemical expression of ICAM-1 on cultured human LECs; assay type: cell-based
[4] = tested on: VCAM-1 on human LECs; test: Immunohistochemical expression of VCAM-1 on cultured human LECs; assay type: cell-based; settings: 18 hrs.-stimulation with 10 ng/mL TNF-α or 100 ng/mL LPS
Description: (§1) Using an indirect immunohistochemical technique, the inventors examined the effects of the supernatants of culture medium of two kinds of carcinoma cells, MDA-MB-231 and MCF-7, on the expression of adhesion molecules such as E-selectin, P-selectin, vascular cell adhesion molecule (VCAM)-1, and intercellular adhesion molecule (ICAM)-1 on the human LECs. The carcinoma cells were plated in DMEM/F12 with 10% FBS, which was replaced the following day with DMEM/F12 with 3% FBS, and then collected after overnight culture. The collected solution was centrifuged at 2,000 rpm for 5 min. at 4° C. To examine the effects of the supernatants on the expression of the adhesion molecules on the human LECs, 1 mL of each collected solution was added to starvation culture medium, EBM-2 with 3% FBS of the human LECs, and then stimulated for 48 hrs. on the cells. In some experiments, the supernatant solutions at different concentrations (1/100 or 1/10,000 dilution) were constructed with appropriate volumes of DMEM/F12 with 3% FBS.
(§2) Indirect immunohistochemical studies were performed on the cultured LECs seeded or glass slides coated with type I collagen, and then the cells were fixed with 3.3% formalin in phosphate-buffered saline solution (PBS), for 20 min. at room temperature. The cells were washed three times with PBS, and then incubated overnight at 4° C. with primary polyclonal human antisera to E-selectin/CD62E (dilution 10 μg/mL, available from R&D Systems, US), P-selectin/CD62P (dilution 10 μg/mL, available from R&D Systems, US), VCAM-1/CD106 (dilution 10 μg/mL, available from R&D Systems, US), and ICAM-1/CD54 (dilution 10 μg/mL, available from R&D Systems, US).
(§3) Before primary staining, the cultured cells were permeabilized with 0.1% TRITON-X. After washing three times in PBS, the cells were incubated for 1 hr. at room temperature with 1:100 diluted ALEXA FLUOR 488 donkey anti-mouse IgG (available from Invitrogen, US). The nuclei of cultured cells were counter-stained and mounted with PROLONG GOLD antifade reagent with 4′-6-diamidine-2-phenylindole (DAPI) (available from Molecular Probes, US), examined by a fluorescent microscope (Leica, Switzerland), and photographed.
(§4) Immunohistochemistry was performed on the cultured human LECs or the fresh-frozen SLNs isolated from the breast cancer patients. In brief, the cultured LECs were fixed with 10% formalin in the phosphate-buffered saline solution (PBS) at room temperature. The cells were incubated for 4 hrs. at room temperature with primary polyclonal human antisera platelet-endothelial cell adhesion molecule (PECAM)-1 (dilution 1:100, available from BD Biosciences, US), lymphatic vessel endothelial hyaluronan receptor (LYVE)-1 (dilution 1:50, available from RELIATech, Germany), PROX-1 (dilution 1:50, available from AngioBio, US), podoplanin (dilution 1:50, available from AngioBio, US), vascular endothelium growth factor receptor 3 (VEGF R3) (dilution 1:50, available from Santa Cruz, US), E-selectin/CD62E (dilution 1:50, available from R&D systems, US), P-selectin/CD62P (dilution 1:50, available from R&D systems, US), vascular cell adhesion molecule (VCAM)-1/CD106 (dilution 1:50, available from R&D systems, US), and intercellular adhesion molecule (ICAM)-1/CD54 (dilution 1:50, available from R&D systems, US). Before the staining, permeabilization of the cultured cells with 0.1% TRITON-X was performed. Then, the cells were stained using the following antibodies: ALEXA FLUOR 488 chicken anti-rabbit IgG or ALEXA FLUOR 488 donkey anti-mouse IgG (available from Invitrogen, US). The nuclei of the cultured cells were counter-stained and mounted with ProLong Gold antifade reagent with 4′-6-diamidine-2-phenylindole (DAPI) (available from Molecular Probes, US). The cultured cells were examined by a fluorescent microscope (available from Leica, Germany) and photographed. […]

[5] = tested on: F-actin in LECs derived from human collecting lymph vessel; test: Staining of cytoskeletal protein F-actin in human LECs; assay type: cell-based; settings: 10 ng/mL TNF-α; 1 ng/mL and 10 ng/mL IL-1β; 2 hrs. at 37° C.; vs negative control
Description: LECs derived from human collecting lymph vessel, which were transplanted into a culture system, were plated on glass slide, and repeatedly subcultured to confluence. Stimulating factors of 10 ng/mL of tumor necrosis factor-α (TNF-α) of Catalog No. T-0157 (available from SIGMA, US), 1 ng/mL and 10 ng/mL of interleukin-1β (IL-1β) of Catalog No. 200-01B (available from PeproTech, US) were respectively dissolved in EBM-2 containing 3% FBS of Catalog No. CC-3156 (available from Sankyo Junyaku Co., Ltd., Japan) and added onto the cells, and then the cells were incubated for 2 hrs. at 37° C. They were fixed with 3.7% formalin. They were washed with PBS solution, and then still stood in PBS solution containing 0.1% TRITON X-100 of Catalog No. X-100 (available from SIGMA, US) for 5 min. Additionally they were washed with PBS solution, and then phalloidin-FITC antibody of Catalog No. P-5282 (available from SIGMA, US) diluted 500 times with PBS solution containing 0.1% BSA was added thereto. They were still stood for 2 hrs. at room temperature. After they were washed with PBS solution, and mounted in MOBI GLOW MOUNTING MEDIUM. Also negative control was similarly prepared except for using no stimulating factor. […] The LECs of the negative control without the stimulating factor indicate obscure green fluorescence, and there were few expression of F-actin.

[6] = tested on: P-selectin on human LECs; test: Immunohistochemical expression of P-selectin on cultured human LECs; assay type: cell-based; settings: 18 hrs.-stimulation with 10 ng/mL TNF-α or 100 ng/mL LPS
Description: as §1, §2
Before primary staining, the cultured cells were permeabilized with 0.1% TRITON-X. After washing three times in PBS, the cells were incubated for 1 hr. at room temperature with 1:100 diluted ALEXA FLUOR 488 donkey anti-mouse IgG (available from Invitrogen, US). […]

[7] = tested on: E-selectin on human LECs; test: Immunohistochemical expression of E-selectin on cultured human LECs; assay type: cell-based; settings: 18 hrs.-stimulation with 10 ng/mL TNF-α or 100 ng/mL LPS
Description: as §1, §2, §3, §4

Molecule | inhibition of growth of prostate cancer cells in vitro [1] | in vitro attachment of carcinoma cells to human LECs [2] | expression of ICAM-1 on human LECs ([3]; 10^−8 or 10^−7M ATP for 48 hrs.) | expression of VCAM-1 on human LECs (positive controls) [4] | expression of F-actin (phalloidin-FITC fluorescence) [5] | expression of P-selectin on human LECs (positive controls) [6] | expression of ICAM-1 on human LECs (positive controls) ([3]; 18 hrs.-stimulation with 10 ng/mL TNF-α or 100 ng/mL LPS) | expression of E-selectin on human LECs (positive controls) [7]
Nc1ncnc2c1ncn2[C@@H]1O[C@H](COP(=O)(O)OP(=O)(O)OP(=O)(O)O)[C@@H](O)[C@H]1O [ATP] | up to 90% | significant increase | marked expression | – | – | – | – | –
TNF-α | – | – | – | marked expression | increase of expression of F-actin | marked expression | marked expression | marked expression

Source: US20140199714A1, “METHOD FOR DETECTING CANCER CELLS METASTASIZING INTO SENTINEL LYMPH NODE” (SHINSHU UNIVERSITY, priority 2008, published 2014)
